Measurements published in PubChem BioAssay AID200 (DTP/NCI, 2004).
Values joined by “and” are separate entries in the source; they are usually repeats but may differ in a detail not shown here. Equal entries are not always repeated. Toxic doses and inconclusive results are not listed.

Tested on: B6C3F1 mice, B16 melanoma ip, median survival T/C
Experiment: NCI In Vivo Anticancer Drug Screen. Data for tumor model B16 Melanoma (intraperitoneal) in B6C3F1 mice
Conditions: endpoint: median survival time, schedule: Q01DX009 (ip), higher = longer survival
Method in brief: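 Transplantable tumor in mice; treated vs vehicle control groups; survival or tumor size measured; value = T/C ratio.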

[1] = dose: 50.0 mg/kg/injection, vehicle: saline
[2] = dose: 100.0 mg/kg/injection, vehicle: saline
[3] = dose: 12.5 mg/kg/injection, vehicle: Klucel (hydroxypropylcellulose) (HPC)
[4] = dose: 25.0 mg/kg/injection, vehicle: Klucel (hydroxypropylcellulose) (HPC)
[5] = dose: 50.0 mg/kg/injection, vehicle: Klucel (hydroxypropylcellulose) (HPC)
[6] = dose: 100.0 mg/kg/injection, vehicle: Klucel (hydroxypropylcellulose) (HPC)
[7] = dose: 25.0 mg/kg/injection, vehicle: saline
[8] = dose: 1.56 mg/kg/injection, vehicle: saline with Tween-80
[9] = dose: 3.12 mg/kg/injection, vehicle: saline with Tween-80
[10] = dose: 6.25 mg/kg/injection, vehicle: saline with Tween-80
[11] = dose: 12.5 mg/kg/injection, vehicle: saline with Tween-80
[12] = dose: 25.0 mg/kg/injection, vehicle: saline with Tween-80
[13] = dose: 50.0 mg/kg/injection, vehicle: saline with Tween-80
[14] = dose: 100.0 mg/kg/injection, vehicle: saline with Tween-80
[15] = dose: 3.0 mg/kg/injection, vehicle: Klucel (hydroxypropylcellulose) (HPC)
[16] = dose: 6.0 mg/kg/injection, vehicle: Klucel (hydroxypropylcellulose) (HPC)
[17] = dose: 200.0 mg/kg/injection, vehicle: saline with Tween-80
[18] = dose: 0.78 mg/kg/injection, vehicle: saline with Tween-80

For CC1=NN(c2cccc(S(=O)(=O)O)c2)C(=O)C1N=Nc1cc(Cl)cc(S(=O)(=O)O)c1O.CC1=NN(c2cccc(S(=O)(=O)O)c2)C(=O)C1N=Nc1cc(Cl)cc(S(=O)(=O)O)c1O.[Cr] (stereo not given), the T/C [1] was 91 % of control and the T/C [2] was 91 % of control.

CC(=O)OC(OC(C)=O)c1ccc([N+](=O)[O-])c([N+](=O)[O-])c1 was tested, and the T/C [3] was 102 % of control, the T/C [4] was 99 % of control and the T/C [5] was 102 % of control.

In the case of CC(C)CC(NC=O)C(=O)O (stereo not given), the T/C [4] is reported as 103 % of control, the T/C [5] is reported as 103 % of control and the T/C [6] is reported as 92 % of control and 100 % of control.

In the case of O=CC(S)CO (stereo not given), the T/C (dose: 12.5 mg/kg/injection, vehicle: saline) is reported as 107 % of control, the T/C [7] is reported as 111 % of control and the T/C [1] is reported as 123 % of control.

In the case of CCCCCCCCSC1=C(Cl)C(=O)C(OC)=C(OC)C1=O, the T/C [8] is reported as 100 % of control, the T/C [9] is reported as 93 % of control and the T/C [10] is reported as 89 % of control.

In the case of Nc1nnc[se]1, the T/C (dose: 3.0 mg/kg/injection, vehicle: saline with Tween-80) is reported as 98 % of control, the T/C [9] is reported as 101 % of control and the T/C [10] is reported as 101 % of control and 102 % of control. The T/C (dose: 12.0 mg/kg/injection, vehicle: saline with Tween-80) was 103 % of control, the T/C [11] was 109 % of control and 102 % of control and the T/C [12] was 108 % of control (2×) and 105 % of control. The T/C [13] was 108 % of control and 115 % of control.

NC(=O)C1=CC2C3C=CC2(O)C(=O)OC3O1 (stereo not given) was tested, and the T/C (dose: 3.75 mg/kg/injection, vehicle: Klucel (hydroxypropylcellulose) (HPC)) was 108 % of control and 123 % of control, the T/C (dose: 7.5 mg/kg/injection, vehicle: Klucel (hydroxypropylcellulose) (HPC)) was 118 % of control and 107 % of control and the T/C (dose: 15.0 mg/kg/injection, vehicle: Klucel (hydroxypropylcellulose) (HPC)) was 114 % of control and 123 % of control.

For COc1nc(C(Cl)(Cl)Cl)c(Cl)c(OC)c1Cl, the T/C [4] was 96 % of control and the T/C [5] was 104 % of control.

In the case of CC1CCOS(=O)O1 (stereo not given), the T/C (dose: 10.0 mg/kg/injection, vehicle: saline) is reported as 104 % of control, the T/C (dose: 20.0 mg/kg/injection, vehicle: saline) is reported as 123 % of control and the T/C (dose: 40.0 mg/kg/injection, vehicle: saline) is reported as 110 % of control.

For Nc1nc2c(C(=O)N3CCCC3)nnn2c2ccccc12, the T/C [10] was 118 % of control, the T/C [11] was 104 % of control and the T/C [12] was 122 % of control. The T/C [13] was 107 % of control and the T/C [14] was 102 % of control.

With O=C(O)CSc1c(Cl)c(=O)oc2ccc(Cl)cc12 the T/C (dose: 6.25 mg/kg/injection, vehicle: Klucel (hydroxypropylcellulose) (HPC)) was 97 % of control, the T/C [3] was 95 % of control and the T/C [4] was 101 % of control. The T/C [5] was 107 % of control and the T/C [6] was 116 % of control.

With CCC(C)Nc1ccc(N)cc1 (stereo not given) the T/C (dose: 0.09 mg/kg/injection, vehicle: saline + Tween-80 + alcohol) was 98 % of control, the T/C (dose: 0.18 mg/kg/injection, vehicle: saline + Tween-80 + alcohol) was 94 % of control and the T/C (dose: 0.37 mg/kg/injection, vehicle: saline + Tween-80 + alcohol) was 109 % of control. For the same compound, the T/C (dose: 0.75 mg/kg/injection, vehicle: saline + Tween-80 + alcohol) was 109 % of control, the T/C (dose: 1.5 mg/kg/injection, vehicle: Klucel (hydroxypropylcellulose) (HPC)) was 91 % of control and the T/C (dose: 1.5 mg/kg/injection, vehicle: saline + Tween-80 + alcohol) was 113 % of control. The T/C [15] was 111 % of control, the T/C (dose: 3.0 mg/kg/injection, vehicle: saline + Tween-80 + alcohol) was 97 % of control and the T/C [16] was 96 % of control. The T/C (dose: 12.0 mg/kg/injection, vehicle: Klucel (hydroxypropylcellulose) (HPC)) was 89 % of control.

For CC(C)(C)OC(=O)NC(CCCCNC(=O)OCc1ccccc1)C(=O)O (stereo not given), the T/C (dose: 25.0 mg/kg/injection, vehicle: distilled water + Tween-80 + alcohol) was 111 % of control and the T/C (dose: 50.0 mg/kg/injection, vehicle: distilled water + Tween-80 + alcohol) was 96 % of control.

For COc1cc(C2c3cc4c(cc3C(OC3CCCCO3)C3COC(=O)C23)OCO4)cc(OC)c1OC (stereo not given), the T/C (dose: 1.56 mg/kg/injection, vehicle: Klucel (hydroxypropylcellulose) (HPC)) was 93 % of control and the T/C (dose: 3.12 mg/kg/injection, vehicle: Klucel (hydroxypropylcellulose) (HPC)) was 98 % of control.

CCN(CC)Cc1cc2[nH]c3c4ccc(Cl)cc4ncc3c2cc1OC was tested, and the T/C [11] was 91 % of control and 102 % of control, the T/C [12] was 112 % of control and 102 % of control and the T/C [13] was 98 % of control and 107 % of control.

CNC(=O)O/N=C(\CN=[N+]=[N-])C(C)(C)C was tested, and the T/C (dose: 0.12 mg/kg/injection, vehicle: saline) was 104 % of control, the T/C (dose: 0.25 mg/kg/injection, vehicle: saline) was 99 % of control and the T/C (dose: 0.5 mg/kg/injection, vehicle: saline) was 118 % of control. For the same compound, the T/C (dose: 1.0 mg/kg/injection, vehicle: saline) was 101 % of control.

With O=C(c1cccnc1)c1cc(-c2ccccn2)c(=O)n2ccccc12 the T/C [12] was 96 % of control, the T/C [13] was 98 % of control and the T/C [14] was 89 % of control.

For CCN(CC)CCOCCO, the T/C (dose: 12.0 mg/kg/injection, vehicle: saline) was 105 % of control, the T/C [7] was 116 % of control and the T/C [1] was 98 % of control. The T/C [2] was 90 % of control.

With CSc1nc(N)nc2c1ncn2C1OC(CO)C(O)C1O (stereo not given) the T/C [7] was 103 % of control, the T/C [1] was 123 % of control and the T/C [2] was 112 % of control. For the same compound, the T/C (dose: 200.0 mg/kg/injection, vehicle: saline) was 97 % of control and the T/C (dose: 400.0 mg/kg/injection, vehicle: saline) was 101 % of control.

CN1C(=O)NC(c2ccc(Cl)cc2)(c2ccc(Cl)cc2)C1=O was tested, and the T/C [11] was 105 % of control, the T/C [12] was 100 % of control and the T/C [13] was 99 % of control. For the same compound, the T/C [14] was 99 % of control, the T/C [17] was 103 % of control and the T/C (dose: 400.0 mg/kg/injection, vehicle: saline with Tween-80) was 99 % of control.

With COC1=CC(=O)c2c(O)cc(OC)cc2C1=O the T/C (dose: 1.25 mg/kg/injection, vehicle: saline with Tween-80) was 105 % of control, the T/C (dose: 2.5 mg/kg/injection, vehicle: saline with Tween-80) was 105 % of control and the T/C (dose: 5.0 mg/kg/injection, vehicle: saline with Tween-80) was 121 % of control. The T/C (dose: 10.0 mg/kg/injection, vehicle: saline with Tween-80) was 109 % of control.

For O=C(O)CCC(NC(=O)c1ccccc1)C(=O)O (stereo not given), the T/C [13] was 93 % of control and the T/C [14] was 106 % of control.

With CC(C)(C)OC(=O)NC(Cc1cn(Cc2ccccc2)cn1)C(=O)O (stereo not given) the T/C [13] was 102 % of control, the T/C [14] was 97 % of control and the T/C [17] was 100 % of control.

For COC(=Nc1ccccc1)SSC(C)C, the T/C [18] was 112 % of control, the T/C [8] was 116 % of control and the T/C [9] was 87 % of control. For the same compound, the T/C [11] was 86 % of control and 104 % of control, the T/C [12] was 87 % of control and 97 % of control and the T/C [13] was 88 % of control. For the same compound, the T/C [14] was 102 % of control.

In the case of CC(=O)NC(CCc1ccc(Cl)c(Cl)c1)c1cccc(O)c(=O)c1 (stereo not given), the T/C [15] is reported as 93 % of control, the T/C [16] is reported as 101 % of control and the T/C [3] is reported as 101 % of control. The T/C [4] was 105 % of control and the T/C [5] was 105 % of control.

For O=C(O)C1CCCN1C(=O)OCC1c2ccccc2-c2ccccc21 (stereo not given), the T/C [6] was 107 % of control and the T/C (dose: 200.0 mg/kg/injection, vehicle: Klucel (hydroxypropylcellulose) (HPC)) was 104 % of control.

C1CCN(c2c3c(nc4nnnn24)CCC3)CC1 was tested, and the T/C [13] was 91 % of control, the T/C [14] was 104 % of control and the T/C [17] was 92 % of control.

Nc1ncnc2c1cnn2Cc1ccc(Cl)cc1 was tested, and the T/C [13] was 107 % of control and the T/C [14] was 100 % of control.

CCNC(=O)OCc1c(COC(=O)NCC)c(-c2ccc(Cl)c(Cl)c2)n2c1CCC2 was tested, and the T/C [18] was 95 % of control, the T/C [9] was 119 % of control and the T/C [11] was 162 % of control. The T/C [12] was 103 % of control.
